# From patent US12473533B2, “Gene targets for T-cell-based immunotherapy” (The Regents of the University of California, priority 2018, dated 2025)
# System: primary human T cells
# Experiment: Genome-wide SLICE pooled CRISPR screen: CFSE-sorted proliferation after TCR stimulation
# Type: cell-based
# Settings: log2 fold-change of sgRNA, dividing over non-dividing cells; positive hits from GW screen
# Source text: To take full advantage of this platform, we scaled-up from the targeted pilot screen to genome-wide (GW) scale (Doench et al., 2016), transducing a library of 77,441 sgRNAs (19,114 genes) into T cells from two healthy donors. After confirming successful transduction of these primary human T cells (FIG. 8,A-B), the cells were re-stimulated and then FACS sorted into non-proliferating and highly-proliferating populations based on CFSE levels (FIG. 8C and Experimental Procedures). MAGeCK software (Li et al., 2014) was used to systematically identify genes that are positively or negatively selected in the proliferating population of T cells. Top positive and negative regulators from the pilot screen were confirmed in both biological replicates of the GW screen along with numerous other hits (FIG. 2A, B). To hone the list of top candidates, we performed an independent secondary screen in cells from two additional human blood donors. The results were well correlated between the primary and secondary screens (FIG. 2C). Furthermore, integrated analysis of the two independent screens performed on a total of four human blood donors provided improved power for target discovery, particularly for negative regulators of T cell proliferation (FIG. 8D). To confirm that hits are in fact dependent on TCR stimulation, we performed GW screens with increasing levels of TCR stimulation. […] The observed dose-response confirmed that the majority of the screen hits are dependent on the TCR stimulus and serve to tune resulting proliferative responses. Taken together these screens identified dozens of genetic perturbations that positively and negatively modulate T cell proliferation.
# 24 hours post stimulation, lentivirus was added directly to cultured T cells at a 1:300 v/v ratio and gently mixed by tilting. Following 24 hours, cells were collected, pelleted, and resuspended in Lonza electroporation buffer P3 (Lonza, Cat #V4XP-3032) at 20e6 cells/100 μl. Next, Cas9 protein (MacroLab, Berkeley, 40 μM stock) was added to cell suspension at 1:10 v/v ratio. Cells were electroporated at 20e6 cells per cuvette using the pulse code EH115 (Lonza, cat #VVPA-1002). The total number of cells for electroporation was scaled as required. Immediately after electroporation, 1 mL of pre-warmed media was added to each cuvette and cuvettes were placed at 37 degrees for 20 minutes. Cells were then transferred to culture vessels in X-Vivo media containing 50 U/ml IL-2 at 1e6 cells/ml in appropriate tissue culture vessels. Cells were expanded every two days, adding fresh media with IL-2 at 50 U/ml and maintaining the cell density at 1e6 cells/ml.
# Cultured cells were collected, spun, washed with PBS, and then resuspended at 1-10 million cells/ml in PBS. CFSE (Biolegend, Cat #423801) was prepared per the manufacturer's protocol to make a 5 mM stock solution in DMSO. This stock solution was diluted 1:1000 in PBS for a 5 μM working solution, and then added in a 1:1 v/v ratio to cell suspension. After mixing, cells were incubated for 5 minutes in the dark at room temperature. The stain was then quenched with a volume of media that was at least 5× the stain volume (e.g. 2 ml+10 ml), and incubated for one minute at room temperature in the dark. Cells were then spun down and resuspended in media prior to restimulation.
# PBMCs from multiple human healthy human donors were isolated from TRIMA residuals (see methods). TRIMA residuals were purchased from Blood Centers of the Pacific. After CD8 T cells isolation as above (Day 0), cells were rested in X-Vivo media overnight and then stimulated with plate-bound anti-human CD3/CD28 and IL-2 at 50 U/mL the following day (Day 1). 24 hours after stimulation (Day 2), cells were transduced with concentrated lentivirus encoding the pooled sgRNA library (see methods). […] after transduction (Day 3), cells were electroporated with CAS9 protein (methods). […]
row,Sequence,LFC (~effect magnitude)
1,"AGGATCGACTTGTGGAACAA (listed as DNA, chemistry not fully specified) [SEQ ID NO: 27, sgRNA targeting RASA2]",0.4134
2,"TGTGGGATGTCGACTCCTAG (chemistry not given here) [SEQ ID NO: 7, sgRNA targeting CBLB]",0.7876
3,"TATGCCATGAGTGCTCAGAG (listed as DNA, chemistry not fully specified) [SEQ ID NO: 37, sgRNA targeting TNFAIP3]",0.651
4,"TGGACCACGAAGAGTTAACC (chemistry not given here) [SEQ ID NO: 14, sgRNA targeting CDKN1B]",0.8112
5,"CTTGGCGTCCGTGAAGATGG (listed as DNA, chemistry not fully specified) [SEQ ID NO: 33, sgRNA targeting TCEB2]",0.6135
6,"CCACTTGTTAACAGAGACCG (listed as DNA, chemistry not fully specified) [SEQ ID NO: 38, sgRNA targeting TNFAIP3]",0.633
7,"GACTCACTGAGACAAAGTAG (listed as DNA, chemistry not fully specified) [SEQ ID NO: 36, sgRNA targeting TMEM222]",0.8727
8,"CGAAAAAGCAGTTCCGCTGG (listed as DNA, chemistry not fully specified) [SEQ ID NO: 30, sgRNA targeting SOCS1]",0.6088
9,"GAATAAGATGTTCTACGCCG (listed as DNA, chemistry not fully specified) [SEQ ID NO: 17, sgRNA targeting DGKZ]",0.6282
10,"GGGCAAGTACGAGTGGCAAG (chemistry not given here) [SEQ ID NO: 13, sgRNA targeting CDKN1B]",0.9886
11,"CCCCGTGCAGCGAGTCAGAG (listed as DNA, chemistry not fully specified) [SEQ ID NO: 18, sgRNA targeting DGKZ]",0.4938
12,"TGCACAGAACTATCGTACCA (listed as DNA, chemistry not fully specified) [SEQ ID NO: 5, sgRNA targeting CBLB]",1.9597
13,"CGGCTCAGCTGGTATGACCC (chemistry not given here) [SEQ ID NO: 8, sgRNA targeting CD5]",1.4145
14,"AGGCTCCAGGAATGTCCGCG (listed as DNA, chemistry not fully specified) [SEQ ID NO: 20, sgRNA targeting DGKZ]",0.4227
15,"CTCCCAAACTGACCTCTAGG (listed as DNA, chemistry not fully specified) [SEQ ID NO: 16, sgRNA targeting DGKA]",0.7081
16,"CAAGTACCGACGCGCCAGCG (listed as DNA, chemistry not fully specified) [SEQ ID NO: 23, sgRNA targeting MEF2D]",0.7255
17,"CCAGTACAAACCCCAGAACG (listed as DNA, chemistry not fully specified) [SEQ ID NO: 40, sgRNA targeting UBASH3A]",0.6566
18,"CAGCACTAGCAGTGGCACGG (chemistry not given here) [SEQ ID NO: 15, sgRNA targeting DGKA]",0.722
19,"AGTTCTACTACAGACCCCCG (chemistry not given here) [SEQ ID NO: 12, sgRNA targeting CDKN1B]",0.8623

row,Sequence,LFC (~effect magnitude)
1,"AGATATCACACATTACAGTG (listed as DNA, chemistry not fully specified) [SEQ ID NO: 25, sgRNA targeting RASA2]",0.861
2,"GAACGCGCTGAGAGTCCGTG (listed as DNA, chemistry not fully specified) [SEQ ID NO: 3, sgRNA targeting AGO1]",0.8318
3,"GCAGGAAGACCGGCACGAAG (listed as DNA, chemistry not fully specified) [SEQ ID NO: 11, sgRNA targeting CD8A]",0.6365
4,"AAGCGTCAAAAGTCTGCCAG (chemistry not given here) [SEQ ID NO: 9, sgRNA targeting CD5]",0.5512
5,"CGTGCTGGTGGTTCGCCACG (listed as DNA, chemistry not fully specified) [SEQ ID NO: 39, sgRNA targeting UBASH3A]",1.0191
6,"GGGCCCCCAGTAGAATCCGC (listed as DNA, chemistry not fully specified) [SEQ ID NO: 29, sgRNA targeting SOCS1]",1.2551
7,"CGGCGTGCGAACGGAATGTG (listed as DNA, chemistry not fully specified) [SEQ ID NO: 31, sgRNA targeting SOCS1]",0.7842
8,"ACGGACATGAAGCAATATCA (listed as DNA, chemistry not fully specified) [SEQ ID NO: 34, sgRNA targeting TMEM222]",1.0461
9,"CATCATCCCTCACGGACCCG (listed as DNA, chemistry not fully specified) [SEQ ID NO: 24, sgRNA targeting MEF2D]",0.46
10,"TTCCGCAAAATAGAGCCCCA (listed as DNA, chemistry not fully specified) [SEQ ID NO: 6, sgRNA targeting CBLB]",1.5917
11,"TTAGCATCAAGGCATGCCAT (listed as DNA, chemistry not fully specified) [SEQ ID NO: 26, sgRNA targeting RASA2]",0.7258
12,"CTCTCCTCAGTACCACAGCA (listed as DNA, chemistry not fully specified) [SEQ ID NO: 19, sgRNA targeting DGKZ]",0.6587
13,"GAGCAGCGGCTGTACAAGGT (listed as DNA, chemistry not fully specified) [SEQ ID NO: 32, sgRNA targeting TCEB2]",1.0955
14,"AGGTTCCAGGTCCGATCCAG (listed as DNA, chemistry not fully specified) [SEQ ID NO: 10, sgRNA targeting CD8A]",0.8084
15,"TGAGGAGTACAAGCACCGCA (listed as DNA, chemistry not fully specified) [SEQ ID NO: 35, sgRNA targeting TMEM222]",1.3341
16,"CCTGTACCCGAATAACCATG (listed as DNA, chemistry not fully specified) [SEQ ID NO: 4, sgRNA targeting ARIH2]",0.3813
17,"CCGCTTTCCAGTGACCGACG (listed as DNA, chemistry not fully specified) [SEQ ID NO: 21, sgRNA targeting FIBP]",0.5586
18,"AGAGCATTATGGGCAGACAG (listed as DNA, chemistry not fully specified) [SEQ ID NO: 22, sgRNA targeting GNA13]",0.3825
19,"GAGAACCTCGGAACATACGG (listed as DNA, chemistry not fully specified) [SEQ ID NO: 28, sgRNA targeting SMARCB1]",0.6271
